Results on 2 compounds are retold here after patent US9133180B2, “Aurora and FLT3 kinases modulators” (SAREUM LIMITED, priority 2012, dated 2015).

SMILES strings stand for the structures.

The subject of one series is CCRF-CEM. Kind of series: CellTiter-Blue assay, haematological cell line. The class given is cell-based. The note with it: Homo sapiens, 96 h; CCRF-CEM (ALL), four days treatment. As for the experimental part:
(§1) The compounds of Examples 2 and 7 were tested against a range of human haematological cell lines using the CellTiter-Blue® assay (#G8081, Promega) according to the manufacturer's instructions. Cells were harvested from exponential phase cultures, counted and plated in 96 well flat-bottom microtiter plates at a cell density of 20,000-90,000 cells/well. After a 24 h recovery period to allow the cells to resume exponential growth, 10 μl of culture medium (four control wells/plate) or of culture medium with test compound were added. The compounds were applied in duplicates at ten concentrations and treatment continued for four days. After treatment of cells, 10 μl/well CellTiter-Blue® reagent was added. Following an incubation period of up to four hours, fluorescence (FU) was measured by using the EnVision Xcite multilabel reader (excitation λ=531 nm, emission λ=615 nm). The compounds were tested in two to four independent experiments for each cell line.

In a further series the test system is MOLT-4. Kind of series: CellTiter-Blue assay, haematological cell line. The class given is cell-based. The note with it: Homo sapiens, 96 h; MOLT-4 (ALL), four days treatment. As for the experimental part: as §1
Another series has as its system MEG-01. Kind of series: CellTiter-Blue assay, haematological cell line. The series is classed as cell-based. The note with it: Homo sapiens, 96 h; MEG-01 (CML), four days treatment. On the procedure: as §1
Another series concerns LP-1. Kind of series: CellTiter-Blue assay, haematological cell line. The series is classed as cell-based. The note with it: Homo sapiens, 96 h; LP-1 (MM), four days treatment. On the procedure:
as §1

The next series deals with OCI-AML2. Kind of series: CellTiter-Blue assay, haematological cell line. The class given is cell-based. The note with it: Homo sapiens, 96 h; OCI-AML2 (AML), four days treatment. As for the experimental part:
as §1

A further series deals with CCRF-CEM/VCR. Kind of series: CellTiter-Blue assay, haematological cell line. The series is classed as cell-based. The note with it: Homo sapiens, 96 h; CCRF-CEM/VCR (ALL), four days treatment. As for the experimental part: as §1
For a further series, the system named is HUT-78. Kind of series: CellTiter-Blue assay, haematological cell line. The class given is cell-based. The note with it: Homo sapiens, HuT78, 96 h; HUT-78 (NHL), four days treatment. As for the experimental part:
as §1

The test system of the next series is JURKAT. Kind of series: CellTiter-Blue assay, haematological cell line. The class given is cell-based. The note with it: Homo sapiens, 96 h; JURKAT (ALL), four days treatment. On the procedure: as §1
The next series relates to L-363. Kind of series: CellTiter-Blue assay, haematological cell line. The series is classed as cell-based. The note with it: Homo sapiens, 96 h; L-363 (MM), four days treatment. On the procedure:
as §1

Another series deals with NOMO-1. Kind of series: CellTiter-Blue assay, haematological cell line. The series is classed as cell-based. The note with it: Homo sapiens, 96 h; NOMO-1 (AML), four days treatment. On the procedure:
as §1

A further series deals with KCL-22. Kind of series: CellTiter-Blue assay, haematological cell line. The class given is cell-based. The note with it: Homo sapiens, 96 h; KCL-22 (CML), four days treatment. As for the experimental part: as §1
A further series deals with PL-21. Kind of series: CellTiter-Blue assay, haematological cell line. The class given is cell-based. The note with it: Homo sapiens, 96 h; PL-21 (AML), four days treatment. On the procedure: as §1
A further series relates to RAJI. Kind of series: CellTiter-Blue assay, haematological cell line. The series is classed as cell-based. The note with it: Homo sapiens, 96 h; RAJI (NHL), four days treatment. On the procedure: as §1
The next series relates to HL-60. Kind of series: CellTiter-Blue assay, haematological cell line. The series is classed as cell-based. The note with it: Homo sapiens, 96 h; HL-60 (AML), four days treatment. On the procedure: as §1
In another series the test system is KG-1. Kind of series: CellTiter-Blue assay, haematological cell line. The class given is cell-based. The note with it: Homo sapiens, 96 h; KG-1 (AML), four days treatment. On the procedure:
as §1

A further series has as its system NCI-H929. Kind of series: CellTiter-Blue assay, haematological cell line. The series is classed as cell-based. The note with it: Homo sapiens, 96 h; NCI-H929 (MM), four days treatment. On the procedure: as §1
The next series has as its target FLT3 kinase (Homo sapiens (Human), UniProt P36888). Kind of series: FLT3 kinase 33P-ATP filter assay (Reaction Biology Corp.). The series is classed as biochemical. As for the experimental part:
(§2) The ability of the compounds of the invention to inhibit FLT3 kinase and Aurora A and Aurora B kinases was determined using the assays described below.
(§3) Kinase assays were performed at Reaction Biology Corp., Malvern, Pa., USA, using the following general procedure:
(§4) 1) Prepare indicated substrate in freshly prepared Base Reaction Buffer (20 mM Hepes pH 7.5, 10 mM MgCl2, 1 mM EGTA, 0.02% Brij35, 0.02 mg/ml BSA, 0.1 mM Na3VO4, 2 mM DTT, 1% DMSO).
(§5) 2) Deliver cofactors (1.5 mM CaCl2, 16 ug/mL Calmodulin, 2 mM MnCl2) to the substrate solution above.
(§6) 3) Deliver indicated kinase into the substrate solution and gently mix
(§7) 4) Deliver varying concentrations of test compound in DMSO into the kinase reaction mixture.
(§8) 5) Deliver ^33P-ATP (specific activity 0.01 µCi/µL final) into the reaction mixture to initiate the reaction.
(§9) 6) Incubate kinase reaction for 120 min at room temperature.
(§10) 7) Reactions are spotted onto P81 ion exchange filter paper (Whatman #3698-915)
(§11) 8) Unbound phosphate is removed by washing filters extensively in 0.75% phosphoric acid.
(§12) 9) ^33P signal was determined using Typhoon phosphorimagers (GE Healthcare).
(§13) Substrates: Kemptide=[H-LRRASLG] Abltide=[[…]]

The next series relates to RPMI8226. Kind of series: CellTiter-Blue assay, haematological cell line. The series is classed as cell-based. The note with it: Homo sapiens, RPMI-8226, 96 h; RPMI8226 (MM), four days treatment.
A further series concerns the target Aurora B kinase (Homo sapiens (Human), UniProt Q96GD4). Kind of series: Aurora B kinase 33P-ATP filter assay (Reaction Biology Corp.). The class given is biochemical. On the procedure: as §2, §3, §4, §5, §6, §7, §8, §9, §10, §11, §12, §13
A short description of series [1]: Caco-2 permeability assay. The series is classed as in vitro ADME. The note with it: human; for Papp A→B: A2B, read-out: Caco2 A2B Papp; for Papp B→A: B2A, read-out: Caco2 B2A Papp. On the procedure:
The ability of a compound to be taken up and retained by a cell can be measured by carrying out permeability studies using Caco-2 cells.
Compounds of the present invention were therefore tested in a standard Caco-2 assay and the rate of flow of the compounds into and out of the cells was determined.
In the table, the column headed “Caco-2 A2B” indicates the rate at which compound flows into the cells and the column Caco-2 B2A indicates the rate at which compound flows out of the cells. The “Efflux Ratio” is the ratio of Caco-2 B2A:Caco-2 A2B.

Chain of FLT3 kinase (P36888 27-993): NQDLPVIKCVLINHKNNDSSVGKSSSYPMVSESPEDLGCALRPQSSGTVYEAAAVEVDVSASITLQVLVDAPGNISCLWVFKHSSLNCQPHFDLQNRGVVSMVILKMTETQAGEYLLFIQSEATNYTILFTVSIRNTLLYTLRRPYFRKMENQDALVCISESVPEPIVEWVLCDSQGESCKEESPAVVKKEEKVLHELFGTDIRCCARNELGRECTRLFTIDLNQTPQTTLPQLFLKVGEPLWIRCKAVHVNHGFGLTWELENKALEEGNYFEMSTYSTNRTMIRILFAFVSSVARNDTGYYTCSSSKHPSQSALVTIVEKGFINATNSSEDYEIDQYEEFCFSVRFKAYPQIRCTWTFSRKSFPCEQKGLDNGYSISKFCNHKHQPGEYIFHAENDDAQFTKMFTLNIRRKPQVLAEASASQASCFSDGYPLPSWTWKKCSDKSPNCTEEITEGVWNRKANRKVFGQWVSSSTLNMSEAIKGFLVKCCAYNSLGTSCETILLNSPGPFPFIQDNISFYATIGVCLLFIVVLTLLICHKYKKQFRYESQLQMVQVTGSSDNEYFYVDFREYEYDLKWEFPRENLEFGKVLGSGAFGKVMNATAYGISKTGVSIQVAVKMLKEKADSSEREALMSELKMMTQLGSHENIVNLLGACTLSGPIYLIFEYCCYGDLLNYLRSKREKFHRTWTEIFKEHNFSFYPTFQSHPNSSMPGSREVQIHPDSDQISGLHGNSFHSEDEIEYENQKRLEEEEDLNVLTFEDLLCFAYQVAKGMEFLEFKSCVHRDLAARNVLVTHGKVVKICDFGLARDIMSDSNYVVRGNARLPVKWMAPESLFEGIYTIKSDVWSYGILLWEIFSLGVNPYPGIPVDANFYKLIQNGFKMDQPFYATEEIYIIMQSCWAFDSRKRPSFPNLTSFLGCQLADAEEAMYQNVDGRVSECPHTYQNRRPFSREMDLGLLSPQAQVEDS
Chain of Aurora B kinase (Q96GD4 whole entry): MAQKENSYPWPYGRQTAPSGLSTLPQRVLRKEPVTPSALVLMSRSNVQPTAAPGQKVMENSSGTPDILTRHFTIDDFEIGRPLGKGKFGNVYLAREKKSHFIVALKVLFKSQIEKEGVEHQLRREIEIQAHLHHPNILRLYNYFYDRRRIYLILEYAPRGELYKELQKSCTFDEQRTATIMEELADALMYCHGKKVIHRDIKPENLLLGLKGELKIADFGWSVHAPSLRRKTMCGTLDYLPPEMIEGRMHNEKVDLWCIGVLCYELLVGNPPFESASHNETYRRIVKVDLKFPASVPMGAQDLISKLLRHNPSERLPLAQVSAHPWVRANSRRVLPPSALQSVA

Take `Cc1ccc2[nH]ccc2c1-c1nc(C(N)=O)c(-c2ccc(N3CCNC(C)(C)C3)cc2)o1` [Example 2, 2-(5-Methyl-1H-Indol-4-yl)-5-[4-(3,3-dimethyl-piperazin-1-yl)-phenyl]-oxazole-4-carboxylic acid amide]: the IC50 was 50 nM in the series on CCRF-CEM; 48 nM in the series on MOLT-4; 633 nM in the series with MEG-01; 1070 nM in the series with LP-1; 103 nM in the series on OCI-AML2; 458 nM in the series with CCRF-CEM/VCR. Moreover, the IC50 with HUT-78 was 138 nM; with JURKAT, 91 nM; with L-363, 121 nM; in the series with NOMO-1, 95 nM; with KCL-22, 417 nM; with PL-21 it was 99 nM. Further, the IC50 is 2850 nM in the series on RAJI; 64 nM in the series on HL-60; 76 nM in the series with KG-1; 852 nM in the series with NCI-H929; 0.77 nM against FLT3 kinase; 2140 nM with RPMI8226. This compound also displayed an IC50 against Aurora B kinase of 5.9 nM. The Papp A→B in series [1] turned out to be 1.98 ×10⁻⁶ cm/s. Also, the Papp B→A in series [1] stood at 9.91 ×10⁻⁶ cm/s. In addition, in [1] (B2A:A2B, read-out: Caco2 Efflux ratio), the efflux ratio turned out to be 4.99.

Take `Cc1cc(F)c2[nH]ccc2c1-c1nc(C(N)=O)c(-c2ccc(N3CCNC(C)(C)C3)cc2)o1` [Example 7, 2-(5-Methyl-7-Fluoro-1H-Indol-4-yl)-5-[4-(3,3-dimethyl-piperazin-1-yl)-phenyl]-oxazole-4-carboxylic acid amide]: the IC50 was found to be 46 nM in the series on CCRF-CEM; 45 nM in the series with MOLT-4; 468 nM in the series on MEG-01; 1010 nM in the series with LP-1; 91 nM in the series with OCI-AML2; 239 nM in the series with CCRF-CEM/VCR. For the same compound, the IC50 with HUT-78 was determined as 123 nM; in the series on JURKAT, 93 nM; in the series with L-363 it was 104 nM; with NOMO-1, 61 nM; with KCL-22, 366 nM; with PL-21 it was 91 nM. The concentration for half-maximal inhibition (IC50) with RAJI was determined as 1800 nM; in the series on HL-60, 52 nM; with KG-1 it was 137 nM; in the series on NCI-H929, 1400 nM; against FLT3 kinase, 0.48 nM. Also, the Papp A→B in [1] was 0.683 ×10⁻⁶ cm/s. For the same compound, the Papp B→A in series [1] was 2.26 ×10⁻⁶ cm/s.
